# Source: patent US20230113037A1 (Bayer Aktiengesellschaft, priority 2019, published 2023)
# Like-named read-outs stand apart in the source and are kept apart here.
# What was measured:
# AHR [1] = target: T1, AHR (Homo sapiens, UniProt P35869); experiment: In vitro assay 1: antagonism in human cell line (AHR transactivation, firefly luciferase reporter, kynurenic acid prestimulated); format: cell-based; settings: AHR Antagonism Human IC50 [M]
# T1 construct: U87 MG glioblastoma cells (ATCC #HTB-14) endogenously expressing AHR; endogenous in cells; host or cells: U87 MG glioblastoma cells (ATCC #HTB-14)
# T1 sequence (P35869 11-848): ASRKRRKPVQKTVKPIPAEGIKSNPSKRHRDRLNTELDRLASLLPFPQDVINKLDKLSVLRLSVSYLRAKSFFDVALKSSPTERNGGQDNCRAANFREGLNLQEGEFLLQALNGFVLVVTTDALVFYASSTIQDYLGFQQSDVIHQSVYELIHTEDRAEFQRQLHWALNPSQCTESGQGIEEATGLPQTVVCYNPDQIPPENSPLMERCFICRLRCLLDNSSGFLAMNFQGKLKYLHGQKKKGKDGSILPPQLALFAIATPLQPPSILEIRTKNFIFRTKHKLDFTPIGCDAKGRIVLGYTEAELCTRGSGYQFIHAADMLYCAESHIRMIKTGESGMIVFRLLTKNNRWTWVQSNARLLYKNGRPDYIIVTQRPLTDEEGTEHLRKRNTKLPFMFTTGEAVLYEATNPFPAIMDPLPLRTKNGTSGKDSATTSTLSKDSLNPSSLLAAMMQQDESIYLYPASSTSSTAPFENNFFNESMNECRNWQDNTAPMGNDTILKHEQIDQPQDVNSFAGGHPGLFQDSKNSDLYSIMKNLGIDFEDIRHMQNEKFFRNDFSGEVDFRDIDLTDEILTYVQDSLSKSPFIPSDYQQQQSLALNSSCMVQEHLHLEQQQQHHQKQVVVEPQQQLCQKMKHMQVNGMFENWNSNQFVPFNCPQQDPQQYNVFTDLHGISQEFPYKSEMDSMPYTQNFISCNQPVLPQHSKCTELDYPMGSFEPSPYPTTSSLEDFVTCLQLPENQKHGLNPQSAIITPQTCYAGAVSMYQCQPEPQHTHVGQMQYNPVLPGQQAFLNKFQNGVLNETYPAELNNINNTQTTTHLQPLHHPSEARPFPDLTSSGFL
# Summary of the method: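 U87 MG glioblastoma cells with endogenous AHR, stably carrying a DRE-driven firefly luciferase reporter and constitutive Renilla reporter, prestimulated with kynurenic acid before compound addition. Firefly and Renilla read by dual luciferase; Renilla flags toxicity; normalized to controls (150 μM kynurenic acid + 5 μM staurosporine as full inhibition); repeat values averaged or median.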
# AHR [2] = target: T2, AHR (Mus musculus, UniProt P30561); experiment: In vitro assay 3: antagonism in mouse cell line (AHR transactivation, firefly luciferase reporter, kynurenic acid prestimulated); format: cell-based
# T2 sequence (P30561 1-848 P471L/N533S/M589L): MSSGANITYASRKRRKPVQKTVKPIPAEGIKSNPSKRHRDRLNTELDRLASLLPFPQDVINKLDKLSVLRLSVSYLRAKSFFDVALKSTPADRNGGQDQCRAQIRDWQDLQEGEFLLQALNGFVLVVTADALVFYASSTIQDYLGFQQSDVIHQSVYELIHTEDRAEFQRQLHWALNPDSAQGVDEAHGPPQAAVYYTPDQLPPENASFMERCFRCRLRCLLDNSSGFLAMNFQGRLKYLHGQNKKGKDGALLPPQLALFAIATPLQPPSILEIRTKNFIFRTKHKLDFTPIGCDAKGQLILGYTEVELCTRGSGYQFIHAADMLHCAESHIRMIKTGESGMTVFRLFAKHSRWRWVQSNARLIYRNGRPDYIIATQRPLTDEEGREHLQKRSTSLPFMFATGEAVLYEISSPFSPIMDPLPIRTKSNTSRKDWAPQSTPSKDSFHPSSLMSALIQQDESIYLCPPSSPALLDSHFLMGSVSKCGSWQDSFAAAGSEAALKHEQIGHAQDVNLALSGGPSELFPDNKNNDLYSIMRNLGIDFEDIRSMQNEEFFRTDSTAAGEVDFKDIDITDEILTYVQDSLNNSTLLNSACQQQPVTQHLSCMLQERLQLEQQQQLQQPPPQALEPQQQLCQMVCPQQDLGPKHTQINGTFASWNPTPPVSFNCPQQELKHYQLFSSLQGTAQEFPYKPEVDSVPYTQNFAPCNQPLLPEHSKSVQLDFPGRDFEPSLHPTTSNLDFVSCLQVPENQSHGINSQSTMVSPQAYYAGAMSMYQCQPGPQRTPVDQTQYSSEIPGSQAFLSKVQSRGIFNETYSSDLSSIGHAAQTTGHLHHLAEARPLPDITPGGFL
# Summary of the method: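 Mouse cells stably carrying a DRE-driven AHR-inducible firefly luciferase reporter were prestimulated with the endogenous agonist kynurenic acid before compound addition. Luciferase read by SteadyGlo; cells without kynurenic acid served as full-inhibition control, with normalization to positive and negative controls. Repeat tests reported as mean or median.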
# [3] = mouse Hepa 1c1c7 cells, 200 μM kynurenic acid, 20 hours, read-out: AHR Antagonism Mouse IC50
# [4] = read-out: AHR Antagonism Mouse IC50, mouse Hepa 1c1c7 cells, 200 μM kynurenic acid, 20 hours
SMILES,IC50 (AHR [1]) [M],IC50 (AHR [2]; [3]) [nM],IC50 (AHR [2]; [4]) [nM]
"COc1cccc(-c2nc3c4ccc(F)cc4nc(N[C@@H]4CCCCNC4=O)n3n2)c1 [Example 148, (3R)-3-{[8-fluoro-2-(3-methoxyphenyl)[1,2,4]triazolo[1,5-c]quinazolin-5-yl]amino}azepan-2-one]",8.12e-07,2.41,–
"COc1cccc(-c2nc3c4ccc(F)cc4nc(N[C@H]4CCCCNC4=O)n3n2)c1 [Example 150, (3S)-3-{[8-fluoro-2-(3-methoxyphenyl)[1,2,4]triazolo[1,5-c]quinazolin-5-yl]amino}azepan-2-one]",1.97e-07,48.8,–
"COc1cccc(-c2nc3c4ccc(F)cc4nc(N[C@H]4CCCNC4=O)n3n2)c1 [Example 151, (3S)-3-{[8-fluoro-2-(3-methoxyphenyl)[1,2,4]triazolo[1,5-c]quinazolin-5-yl]amino}piperidin-2-one]",2.36e-06,343,–
"COc1cccc(-c2nc3c4ccc(F)cc4nc(N[C@@H]4CCNC4=O)n3n2)c1 [Example 152, (3R)-3-{[8-fluoro-2-(3-methoxyphenyl)[1,2,4]triazolo[1,5-c]quinazolin-5-yl]amino}pyrrolidin-2-one]",5.28e-08,353,–
"COc1ccc(-c2nc3c4ccc(F)cc4nc(N[C@@H]4CCCCNC4=O)n3n2)cc1 [Example 153, (3R)-3-{[8-fluoro-2-(4-methoxyphenyl)[1,2,4]triazolo[1,5-c]quinazolin-5-yl]amino}azepan-2-one]",4.35e-10,1.18,–
"COc1cccc(-c2nc3c4cc(C)ccc4nc(N[C@@H]4CCCCNC4=O)n3n2)c1 [Example 154, (3R)-3-{[2-(3-methoxyphenyl)-9-methyl[1,2,4]triazolo[1,5-c]quinazolin-5-yl]amino}azepan-2-one]",2.18e-09,1.16,–
"Cc1ccc2nc(N[C@@H]3CCCCNC3=O)n3nc(-c4cnn(C)c4)nc3c2c1 [Example 158, (3R)-3-{[9-methyl-2-(1-methyl-1H-pyrazol-4-yl)[1,2,4]triazolo[1,5-c]quinazolin-5-yl]amino}azepan-2-one]",1.77e-08,32.2,–
"COc1cccc(-c2nc3c4cc(F)ccc4nc(N[C@@H]4CCCCNC4=O)n3n2)c1 [Example 159, (3R)-3-{[9-fluoro-2-(3-methoxyphenyl)[1,2,4]triazolo[1,5-c]quinazolin-5-yl]amino}azepan-2-one]",1.03e-09,0.227,–
"COc1cccc(-c2nc3c4cc(F)ccc4nc(N[C@H]4CCCCNC4=O)n3n2)c1 [Example 160, (3S)-3-{[9-fluoro-2-(3-methoxyphenyl)[1,2,4]triazolo[1,5-c]quinazolin-5-yl]amino}azepan-2-one]",1.43e-07,15.4,–
"COc1cccc(-c2nc3c4cc(F)ccc4nc(NC4CCNC4=O)n3n2)c1 (stereo not shown) [Example 162, 3-{[9-fluoro-2-(3-methoxyphenyl)[1,2,4]triazolo[1,5-c]quinazolin-5-yl]amino}pyrrolidin-2-one]",2.23e-08,25.5,–
COc1ccc(-c2nc3c4c(Br)cccc4nc(N[C@@H]4CCCCNC4=O)n3n2)cc1 [Example 164],2.44e-09,4.54,–
"Cn1cc(-c2nc3c4c(Br)cccc4nc(N[C@@H]4CCCCNC4=O)n3n2)cn1 [Example 165, (3R)-3-{[10-bromo-2-(1-methyl-1H-pyrazol-4-yl)[1,2,4]triazolo[1,5-c]quinazolin-5-yl]amino}azepan-2-one]",1.65e-08,98.6,–
"COc1ccc(-c2nc3c4c(Cl)cccc4nc(N[C@@H]4CCCCNC4=O)n3n2)cc1 [Example 168, (3R)-3-{[10-chloro-2-(4-methoxyphenyl)[1,2,4]triazolo[1,5-c]quinazolin-5-yl]amino}azepan-2-one]",9.09e-10,2.21,–
"Cn1cc(-c2nc3c4c(Cl)cccc4nc(N[C@@H]4CCCCNC4=O)n3n2)cn1 [Example 169, (3R)-3-{[10-chloro-2-(1-methyl-1H-pyrazol-4-yl)[1,2,4]triazolo[1,5-c]quinazolin-5-yl]amino}azepan-2-one]",7.27e-09,–,118
"COc1ccc(-c2nc3c4c(C(F)(F)F)cccc4nc(N[C@@H]4CCCCNC4=O)n3n2)cc1 [Example 172, (3R)-3-{[2-(4-methoxyphenyl)-10-(trifluoromethyl)[1,2,4]triazolo[1,5-c]quinazolin-5-yl]amino}azepan-2-one]",1.29e-08,12,–
"Cn1cc(-c2nc3c4c(C(F)(F)F)cccc4nc(N[C@@H]4CCCCNC4=O)n3n2)cn1 [Example 173, (3R)-3-{[2-(1-methyl-1H-pyrazol-4-yl)-10-(trifluoromethyl)[1,2,4]triazolo[1,5-c]quinazolin-5-yl]amino}azepan-2-one]",7.21e-08,112,–
"O=C1NCCCC[C@H]1Nc1nc2cccc(C(F)(F)F)c2c2nc(-c3ccc(F)cc3)nn12 [Example 174, (3R)-3-{[2-(4-fluorophenyl)-10-(trifluoromethyl)[1,2,4]triazolo[1,5-c]quinazolin-5-yl]amino}azepan-2-one]",2.26e-08,4.04,–
"O=C1NCCCC[C@H]1Nc1nc2cccc(C3CC3)c2c2nc(-c3cccc(F)c3)nn12 [Example 175, (3R)-3-{[10-cyclopropyl-2-(3-fluorophenyl)[1,2,4]triazolo[1,5-c]quinazolin-5-yl]amino}azepan-2-one]",3.24e-08,22.3,–
"COc1ccc(-c2nc3c4c(C5CC5)cccc4nc(N[C@@H]4CCCCNC4=O)n3n2)cc1 [Example 176, (3R)-3-{[10-cyclopropyl-2-(4-methoxyphenyl)[1,2,4]triazolo[1,5-c]quinazolin-5-yl]amino}azepan-2-one]",6.81e-09,6.55,–
"COc1cccc(-c2nc3c4c(C)cccc4nc(N[C@@H]4CCCCNC4=O)n3n2)c1 [Example 178, (3R)-3-{[2-(3-methoxyphenyl)-10-methyl[1,2,4]triazolo[1,5-c]quinazolin-5-yl]amino}azepan-2-one]",3.98e-09,2.34,–
"COc1cccc(-c2nc3c4c(C)cccc4nc(NC4CCNC4=O)n3n2)c1 (stereo not shown) [Example 179, 3-{[2-(3-methoxyphenyl)-10-methyl[1,2,4]triazolo[1,5-c]quinazolin-5-yl]amino}pyrrolidin-2-one]",1.01e-07,–,246
"COc1cccc(-c2nc3c4c(C)cccc4nc(NC4CCCNC4=O)n3n2)c1 (stereo not shown) [Example 180, 3-{[2-(3-methoxyphenyl)-10-methyl[1,2,4]triazolo[1,5-c]quinazolin-5-yl]amino}piperidin-2-one]",1.27e-07,253,–
"COc1cccc(-c2nc3c4c(C)cccc4nc(N[C@H]4CCCCNC4=O)n3n2)c1 [Example 181, (3S)-3-{[2-(3-methoxyphenyl)-10-methyl[1,2,4]triazolo[1,5-c]quinazolin-5-yl]amino}azepan-2-one]",3.37e-07,25.7,–
